How the values were obtained:
Details in all cases: 72 h
U2OS [1] = assay: cell viability relative to DMSO; higher = less toxic
Caco-2 [2] = assay: as above
HepG2 [3] = assay: as above
Calu-3 [4] = assay: as above
U2OS [5] = assay: drug sensitivity score (DSS) for viability; higher = more toxic; extreme values may be limits of the assay
Caco-2 [6] = assay: as above
HepG2 [7] = assay: as above
Calu-3 [8] = assay: as above
U2OS [9] = assay: relative viability EC50 (midpoint between 100% and the lowest measured viability); higher = less toxic
Caco-2 [10] = assay: as above
HepG2 [11] = assay: as above
Calu-3 [12] = assay: as above
Vero E6 [13] = assay: cell viability relative to DMSO; higher = less toxic
Vero E6 [14] = assay: drug sensitivity score (DSS) for viability; higher = more toxic; extreme values may be limits of the assay

| Compound | cell viability (U2OS [1]; 1 nM) | cell viability (U2OS [1]; 10 nM) | cell viability (U2OS [1]; 100 nM) | cell viability (U2OS [1]; 1000 nM) | cell viability (U2OS [1]; 10000 nM) | cell viability (Caco-2 [2]; 1 nM) | cell viability (Caco-2 [2]; 10 nM) | cell viability (Caco-2 [2]; 100 nM) | cell viability (Caco-2 [2]; 1000 nM) | cell viability (Caco-2 [2]; 10000 nM) | cell viability (HepG2 [3]; 1 nM) | cell viability (HepG2 [3]; 10 nM) | cell viability (HepG2 [3]; 100 nM) | cell viability (HepG2 [3]; 1000 nM) | cell viability (HepG2 [3]; 10000 nM) | cell viability (Calu-3 [4]; 1 nM) | cell viability (Calu-3 [4]; 10 nM) | cell viability (Calu-3 [4]; 100 nM) | cell viability (Calu-3 [4]; 1000 nM) | cell viability (Calu-3 [4]; 10000 nM) | drug sensitivity score (U2OS [5]) | drug sensitivity score (Caco-2 [6]) | drug sensitivity score (HepG2 [7]) | drug sensitivity score (Calu-3 [8]) | relative viability EC50 (U2OS [9]) | relative viability EC50 (Caco-2 [10]) | relative viability EC50 (HepG2 [11]) | relative viability EC50 (Calu-3 [12]) | cell viability (Vero E6 [13]; 1 nM) | cell viability (Vero E6 [13]; 10 nM) | cell viability (Vero E6 [13]; 100 nM) | cell viability (Vero E6 [13]; 1000 nM) | cell viability (Vero E6 [13]; 10000 nM) | drug sensitivity score (Vero E6 [14]) |
| --- | --- | --- | --- | --- | --- | --- | --- | --- | --- | --- | --- | --- | --- | --- | --- | --- | --- | --- | --- | --- | --- | --- | --- | --- | --- | --- | --- | --- | --- | --- | --- | --- | --- | --- |
| CCOC(=O)C1=C(C)NC(c2ccccc2)=C(C(=O)OCc2ccc([N+](=O)[O-])cc2)[C@@H]1C#Cc1ccccc1 [MRS-1334] | 104% | 95.8% | 100% | 101% | 97.9% | 99.1% | 99.7% | 92.8% | 96.8% | 91.9% | 114% | 104% | 100% | 92.6% | 89.3% | 99.2% | 97.1% | 96.8% | 95.2% | 98% | 0 | 0 | 0.1 | 0 | > 10 µM | > 10 µM | > 10 µM | > 10 µM | – | – | – | – | – | – |
| CCc1cc(C(C)=O)c(O)cc1OCCCCCC(C)(C)c1nn[nH]n1 | 94% | 96.2% | 88.1% | 97.4% | 95.5% | 102% | 92.1% | 99.5% | 107% | 94.5% | 99.8% | 107% | 105% | 88.4% | 107% | 108% | 103% | 97.1% | 98% | 93.3% | 0 | 0 | 0 | 0 | > 10 µM | > 10 µM | > 10 µM | > 10 µM | – | – | – | – | – | – |
| OCc1ccc(-c2ccc(-c3ccc(CO)s3)o2)s1 [RITA] | 95% | 96.3% | 102% | 101% | 32.4% | 99.2% | 103% | 100% | 89.4% | 77.8% | 107% | 110% | 88.3% | 92.4% | 4.6% | 102% | 101% | 90.6% | 103% | 106% | 3.6 | 1.9 | 6.5 | 0 | 3.25 µM | > 10 µM | 2.51 µM | > 10 µM | 101% | 103% | 103% | 102% | 68% | 1.3 |
| NC(=O)Nc1cc(-c2cccc(F)c2)sc1C(=O)N[C@H]1CCCNC1 [AZD7762] | 101% | 95.9% | 97.3% | 6.1% | 0.1% | 96.3% | 91.5% | 102% | 82.6% | 25% | 97.8% | 101% | 103% | 37.8% | 1.3% | 106% | 96.4% | 94.8% | 43.4% | 7% | 17.4 | 6.9 | 12.7 | 12 | 0.352 µM | 1.61 µM | 0.809 µM | 0.736 µM | 92% | 99.1% | 90.7% | 84.6% | 52.4% | 4.1 |
| NS(=O)(=O)c1ccc(C(=O)O)cc1 [carzenide] | – | – | – | – | – | 106% | 96.1% | 112% | 106% | 96.9% | 97.6% | 99.8% | 102% | 102% | 94.9% | 106% | 101% | 93.4% | 100% | 94.2% | – | 0 | 0 | 0 | – | > 10 µM | > 10 µM | > 10 µM | – | – | – | – | – | – |
| CC(=O)Nc1ccc(C(=O)Nc2ccccc2N)cc1 [tacedinaline] | 99% | 103% | 95.1% | 90.7% | 43.1% | 97.3% | 95.2% | 93.4% | 99.9% | 52.7% | 104% | 85.5% | 98% | 74.4% | 40.8% | 101% | 99.8% | 97.1% | 74.5% | 42.3% | 4.6 | 2.5 | 6.3 | 6.1 | 1.91 µM | – | 1.15 µM | 1.14 µM | 99% | 104% | 97.9% | 92.8% | 54.7% | 3.5 |
| Cc1cc([C@@H](C)Nc2ccccc2C(=O)O)c2nc(N3CCOCC3)cc(=O)n2c1 [AZD6482] | 100% | 101% | 96.1% | 99.8% | 80.8% | 93.5% | 102% | 90% | 83.6% | 57.5% | 103% | 102% | 99.9% | 85.5% | 79.7% | 97.7% | 105% | 94.2% | 100% | 69% | 0.6 | 3.9 | 2 | 1.3 | > 10 µM | – | > 10 µM | – | 108% | 96.5% | 89.3% | 79.8% | 67.6% | 4.1 |
| NCCCCN(Cc1nc2ccccc2[nH]1)[C@H]1CCCc2cccnc21 | 106% | 100% | 97.3% | 96.6% | 98.3% | 100% | 93.3% | 97.1% | 97.2% | 104% | 100% | 104% | 97.6% | 105% | 82.8% | 98.9% | 93.1% | 96.2% | 90.4% | 89.8% | 0 | 0 | 0.2 | 0 | > 10 µM | > 10 µM | > 10 µM | > 10 µM | – | – | – | – | – | – |
| NC(=O)c1cccc2cn(-c3ccc([C@@H]4CCCNC4)cc3)nc12 [niraparib] | 101% | 95.4% | 101% | 97.3% | 106% | 92.7% | 106% | 89.9% | 96.4% | 88.1% | 83.9% | 109% | 99.4% | 95.4% | 62.9% | 97% | 104% | 110% | 106% | 97.6% | 0 | 0 | 2.5 | 0 | > 10 µM | > 10 µM | – | > 10 µM | 102% | 102% | 102% | 95.8% | 73% | 1.7 |
| Cc1c(C(=O)N2CCOc3ccc(-c4ccc(N)nc4)cc3C2)ccc(S(C)(=O)=O)c1F [XL388] | 102% | 101% | 102% | 98.3% | 50.2% | 115% | 105% | 103% | 77.8% | 43% | 110% | 115% | 99.5% | 92.5% | 39% | 102% | 104% | 103% | 68.5% | 33.7% | 2.8 | 6.1 | 4.6 | 7.7 | – | 1.2 µM | 2.16 µM | 1.04 µM | 110% | 108% | 103% | 95.6% | 66.7% | 2.3 |
| Cc1cc(C)c(S(=O)(=O)Nc2cccc(C(F)(F)F)c2)c(C)c1 [m-3M3FBS] | 101% | 97% | 100% | 103% | 100% | 111% | 98.8% | 108% | 98.2% | 106% | 101% | 98.9% | 93% | 88.8% | 90.6% | 94.5% | 102% | 95.8% | 98.9% | 99.4% | 0 | 0 | 0.4 | 0 | > 10 µM | > 10 µM | > 10 µM | > 10 µM | – | – | – | – | – | – |
| OCCOCCN1CCN(C(c2ccccc2)c2ccc(Cl)cc2)CC1 (configuration not stated) [hydroxyzine] | 97.9% | 99.8% | 96.8% | 100% | 93.8% | 94.2% | 101% | 106% | 101% | 94% | 101% | 96.4% | 104% | 108% | 105% | 101% | 115% | 93.3% | 106% | 96.7% | 0 | 0 | 0 | 0 | > 10 µM | > 10 µM | > 10 µM | > 10 µM | – | – | – | – | – | – |
| NS(=O)(=O)Nc1ncnc(OCCOc2ncc(Br)cn2)c1-c1ccc(Br)cc1 | 97.8% | 94.5% | 96.9% | 102% | 105% | 106% | 94.3% | 102% | 93.8% | 97% | 102% | 104% | 98.9% | 92.9% | 90.9% | 88.4% | 99.1% | 95.6% | 104% | 94.7% | 0 | 0 | 0 | 0 | > 10 µM | > 10 µM | > 10 µM | > 10 µM | – | – | – | – | – | – |
| O=S(=O)(c1cccc2cnccc12)N1CCNCC1 [C-1] | – | – | – | – | – | 96.8% | 94.8% | 105% | 99.4% | 104% | 93.2% | 105% | 95% | 110% | 104% | 98.2% | 91.8% | 96.3% | 99.5% | 123% | – | 0 | 0 | 0 | – | > 10 µM | > 10 µM | > 10 µM | – | – | – | – | – | – |
| NS(=O)(=O)c1cc2c(cc1Cl)NCNS2(=O)=O [hydrochlorothiazide] | – | – | – | – | – | – | – | – | – | – | – | – | – | – | – | – | – | – | – | – | 0 | – | – | 0 | – | – | – | – | – | – | – | – | – | 0 |
| CS(=O)(=O)Nc1ccc([N+](=O)[O-])cc1Oc1ccccc1 [nimesulide] | – | – | – | – | – | – | – | – | – | – | – | – | – | – | – | – | – | – | – | – | 0 | – | 0 | 0 | – | – | – | – | – | – | – | – | – | 0 |
| CCOP(=S)(OCC)Oc1ccc2c(C)c(Cl)c(=O)oc2c1 [coumophos] | – | – | – | – | – | – | – | – | – | – | – | – | – | – | – | – | – | – | – | – | 0 | – | 0 | 0 | – | – | – | – | – | – | – | – | – | 0 |
| Cc1cc(Nc2cc(CN3CCOCC3)c3nc(C)c(Cc4ccc(Cl)cc4F)n3n2)n[nH]1 | 104% | 105% | 104% | 99.4% | 29.6% | 102% | 98.2% | 105% | 96.7% | 62.8% | 101% | 105% | 97.5% | 75.5% | 32.7% | 107% | 99.7% | 97.1% | 91% | 50.6% | 4 | 2.3 | 6.9 | 4.1 | 3.11 µM | – | 1.29 µM | – | 96.4% | 98% | 96.8% | 95.8% | 70.7% | 1.9 |

Reference: the supplement of paper PMC13380429
